# Legend:
# [1] = Body weight of rats treated with EGCG; type: in vivo, rat
# Description: (§1) Animal. Adult Sprague-Dawley (SD; Harlan) rats (body weight for male: 170-190 g; for female: 125-145 g) and lean and obese Zucker (Charles River Laboratory) rats (body weight for lean male: 240-260 g; for obese male: 420-440 g) were given free access to a standard rat chow diet and water unless indicated. Animal experimental protocols were approved by the University of Chicago institutional animal care and use committee. Rats were maintained at an ambient temperature of 25° C. under a photoperiod of 12-hour light and 12-hour dark.
# (§2) In vivo treatment. EGCG and other catechins (>98% pure) were isolated from green tea (Camellia sinensis) in our laboratory as described in Liao et al., Biochem. Biophys. Res. Commun. 214: 833-838 (1995). Catechins were dissolved in water for oral administration and in sterile phosphate buffered saline for ip injection. Rats in control groups received vehicle only. Testosterone propionate (TP) and 5α-dihydrotestosterone propionate (DHTP) were dissolved in sesame oil and 4 mg in 0.5 ml sesame oil (16 mg/kg body weight) was injected subcutaneously daily, when indicated.
# (§3) Food-restricted, male SD rats were given 12 g rat chow daily, which was about 50% of the amount consumed daily by each control rat. The body weight and the amount of food and water consumed were monitored daily. Food consumption was monitored in rats caged in groups of 3 to 5 animals by weighing food pellets every 24 hr. On the final day, rats were anesthetized with methoxyflurane and blood was collected by heart puncture. Sera were collected after centrifugation (10,000 g for 20 min at 4° C.) for biochemical analysis.
# (§4) Statistical analysis. Data are expressed as the mean±sem. The unpaired Student's t-test was used to examine differences between control and the EGCG-injected groups. Analysis of variance and Student-Newman-Keuls multiple range test were used to examine differences among various groups. A probability level of 0.05 was used to indicate significance.
# Body weight of subjects treated with EGCG. […] In male SD rats, the effect of EGCG on body weight was dose-dependent. […] Male SD rats injected daily ip with 26 and 53 mg EGCG/kg bw gained body weight by 17-24% relative to their initial body weight, but lost 5-9% relative to the control after 7 days of treatment. Whereas, male SD rats daily injected ip with 85 mg EGCG/kg bw lost 15-21% of their body weight relative to their initial weight and 30-41% relative to the control after 7 days of treatment. Control rats continued growth and increased their body weight by 25-34% relative to their initial weight (see Table 1). Female SD rats injected daily ip with 12.5 mg EGCG (about 92 mg/kg bw) lost 10% of their body weight relative to their initial weight and 29% relative to the control after 7 days of treatment. Therefore, a dose of EGCG of 70-92 mg/kg body weight was used in most experiments.
# [2] = type: in vivo, rat
# Description: as §1, §2, §4
# Weight change in accessory sexual organs and other organs. An effect of EGCG dosage on the weight of accessory sexual organs was also observed. The weight of androgen-sensitive organs, such as ventral and dorsolateral prostates, seminal vesicles, coagulating glands, and preputial glands were reduced by 50-70% after 7 days of treatment with EGCG (about 85 mg/kg bw). Weight changes in these sexual organs were modulated in a catechin-specific manner. Relative to control animals sacrificed at the start of the experiment, these accessory sexual organs (except preputial gland) in male SD rats were reduced by 30-50% in weight after 7 days of EGCG treatment. […]
# [3] = tested on: sex hormones, leptin, IGF-I, insulin, LH and GH; assay: Change in levels of sex hormones, leptin, IGF-I, insulin, LH and GH (radioimmunoassay of serum); type: in vivo, rat
# Description: as §1, §2, §3
# (§5) Biochemical analysis. For biochemical analysis, commercially available radioimmunoassay kits for IGF-I and testosterone (Diagnostic Systems Laboratory, Inc), LH and GH (Amersham), leptin and insulin (Linco Research Inc), and corticosterone (ICN) and analytical kits for glycerol and triglyceride (Sigma) and fatty acids (Roche Molecular Biochemicals) were used. Proximate composition analysis of rats was performed by COVANCE Laboratory (Madison, Wis.). Complete blood count and serum chemistry (e.g., cholesterols, glucose, and enzymatic activities) were performed by the Animal Resource Center at the University of Chicago.
# as §4
# Change in levels of sex hormones, leptin, IGF-I, insulin, LH and GH. […] After 7 days of treatment with EGCG (about 85 mg/kg bw), circulating testosterone was reduced by about 70% in male SD rats. Similarly, the circulating level of 17β-estradiol was reduced by 34% in females after 7 days of EGCG treatment. […] However, the pulsatile nature of GH secretion prevented us from making definite conclusions about changes in circulating levels of GH in these rats. The effect of EGCG on sex hormones and various peptide hormones investigated was not mimicked by ECG which has one less hydroxyl group than EGCG.
# [4] = Exogenous androgen (TP or DHTP) co-administered with EGCG; type: in vivo, rat
# Description: as §2
# Effects of exogenous androgen reverses the effect of EGCG on accessory sexual organs. To determine if the reduction in weight of accessory sexual organs was due to EGCG-induced reduction in androgen levels, we injected male SD rats with androgen and/or EGCG.
# [5] = Change in serum nutrients and proximate body composition; type: in vivo, rat
# Description: as §1, §2, §3, §5, §4
# Change in serum nutrients and proximate body composition.
# [6] = Effect of EGCG on food intake; type: in vivo, rat
# Description: as §1
# In vivo treatment. EGCG and other catechins (>98% pure) were isolated from green tea (Camellia sinensis) in our laboratory as described in Liao et al., Biochem. Biophys. Res. Commun. 214: 833-838 (1995). Catechins were dissolved in water for oral administration and in sterile phosphate buffered saline for ip injection. Rats in control groups received vehicle only. […]
# Food-restricted, male SD rats were given 12 g rat chow daily, which was about 50% of the amount consumed daily by each control rat. The body weight and the amount of food and water consumed were monitored daily. Food consumption was monitored in rats caged in groups of 3 to 5 animals by weighing food pellets every 24 hr. […]
# [7] = Change in composition of blood (serum chemistry, complete blood count); settings: rat, in vivo
# Description: as §2, §3
# Biochemical analysis. […]
# Change in composition of blood. Male SD rats were treated with EGCG and ECG for 7 days and then their serum and whole blood was analyzed for various components. […]
# [8] = female SD rats, 12.5 mg EGCG (about 92 mg/kg bw) ip daily, 7 days
# [9] = male SD rats, 85 mg EGCG/kg bw ip daily, 7 days
# [10] = male SD rats, 26 and 53 mg EGCG/kg bw ip daily, 7 days
# [11] = male and female SD rats, 7 days
# [12] = male SD and lean Zucker rats, within 7 to 8 days
compound,measurement,setting,value
"O=C(OC1Cc2c(O)cc(O)cc2OC1c1cc(O)c(O)c(O)c1)c1cc(O)c(O)c(O)c1 (single isomer, unassigned; (-)) [EGCG, (−)epigallocatechin-3-gallate]",effectiveness in reducing body weight compared with 15 mg (about 85 mg/kg),"[1]; 5 or 10 mg EGCG (26 and 53 mg/kg body weight) injected daily, male SD rats",not effective or less effective
same,body weight loss,"[1]; IP injection, SD male and female rats, within 2 to 7 days of treatment",caused acute body weight loss
same,body weight lost relative to initial weight,[1]; [8],10%
same,body weight lost relative to the control,[1]; [8],29%
same,body weight lost relative to initial weight,[1]; [9],15-21%
same,body weight lost relative to the control,[1]; [9],30-41%
same,body weight gain relative to initial body weight,[1]; [10],17-24%
same,body weight lost relative to the control,[1]; [10],5-9%
same,"effect on body weight, dose dependence","[1]; male SD rats, ip daily",dose-dependent
same,"reduction in weight of androgen-sensitive organs (ventral and dorsolateral prostates, seminal vesicles, coagulating glands, preputial glands)","[2]; about 85 mg/kg bw, 7 days, male rats",50-70%
same,reduction in weight of estrogen-sensitive organs (uterus and ovary),"[2]; female SD rats, 7 days of treatment",about 50%
same,reduction in weight of accessory sexual organs (except preputial gland) relative to control animals sacrificed at the start of the experiment,"[2]; male SD rats, 7 days of treatment",30-50%
same,reduction of circulating level of 17β-estradiol,"[3]; female SD rats, 7 days",34%
same,serum level of GH,"[3]; female SD rats, 7 days",reduced in females
same,"dose dependence of effects on serum testosterone, leptin, IGF-I and insulin",[3]; male SD rats,Dose-dependent effects
same,serum level of GH,"[3]; male SD rats, 7 days",increased in males
same,reduction of circulating testosterone,"[3]; male SD rats, about 85 mg/kg bw, 7 days",about 70%
same,blood level of IGF-I,[3]; [11],significant reduction
same,blood level of insulin,[3]; [11],significant reduction
same,blood level of leptin,[3]; [11],significant reduction
same,reduction of serum level of LH,[3]; [11],40-50%
same,"EGCG-induced body weight loss, food intake restriction, decreases in circulating leptin, IGF-I, insulin and LH, increase in GH under androgen administration","[4]; male SD rats, androgen co-administered",androgen administration was not able to prevent
same,prostate weight loss,[4]; male rats injected daily with TP or DHTP (16 mg/kg sc),did not cause prostate weight loss
same,percent water and protein content (proximate composition),[5]; SD rats treated daily for 7 days,no change
same,carbohydrate content (proximate composition),"[5]; SD rats treated daily for 7 days, 2.5% in control",1.3%
same,fat content (proximate composition),"[5]; SD rats treated daily for 7 days, 4.1% in control",1.4%
same,decrease of abdominal fat,[5]; [12],20-35%
same,decrease of epididymal fat,[5]; [12],not epididymal fat
same,decrease of subcutaneous fat,[5]; [12],40-70%
same,change in serum cholesterol,[5]; male SD rats,−20%
same,change in serum glucose,[5]; male SD rats,−32%
same,change in serum lipids,[5]; male SD rats,−15%
same,change in serum triglycerides,[5]; male SD rats,−46%
same,"serum level of protein, fatty acids and glycerol",[5]; male SD rats,not altered
same,loss of abdominal fat,"[5]; obese male Zucker rats, within 4 days",20%
same,less food consumed than control rats,"[6]; SD male and female rats, ip",50-60%
same,effects of EGCG when administered orally compared with intraperitoneally,[6]; oral administration,diminished or absent
same,"serum total protein, albumin, blood urea nitrogen, creatine, PO4 3−, Na+, K+, Ca2+, Cl−, lactate dehydrogenase, alanine aminotransferase, aspartate aminotransferase, γ-glutamyltranspeptidase",[7],Neither EGCG nor structurally-related ECG caused significant changes
"(−)epicatechin-3-gallate [ECG, reference compound]","effect on sex hormones and various peptide hormones, compared with the effect of EGCG",[3]; rats,not mimicked

# From US6610749B2, “Polyhydroxylated benzene-containing compounds” (ARCH Development Corporation, priority 2000, dated 2003)
